The target in one assay is T1, E-selectin (Homo sapiens, UniProt P16581).
T1 construct: fusion proteins formed from the extracytoplasmatic domains of E- or P-selectin, respectively, and the constant region of human immunoglobulin of the IgG1 subclass; made in house; host or cells: COS-7 cells (transient transfection, culture supernatant)
T1 sequence (P16581 22-556): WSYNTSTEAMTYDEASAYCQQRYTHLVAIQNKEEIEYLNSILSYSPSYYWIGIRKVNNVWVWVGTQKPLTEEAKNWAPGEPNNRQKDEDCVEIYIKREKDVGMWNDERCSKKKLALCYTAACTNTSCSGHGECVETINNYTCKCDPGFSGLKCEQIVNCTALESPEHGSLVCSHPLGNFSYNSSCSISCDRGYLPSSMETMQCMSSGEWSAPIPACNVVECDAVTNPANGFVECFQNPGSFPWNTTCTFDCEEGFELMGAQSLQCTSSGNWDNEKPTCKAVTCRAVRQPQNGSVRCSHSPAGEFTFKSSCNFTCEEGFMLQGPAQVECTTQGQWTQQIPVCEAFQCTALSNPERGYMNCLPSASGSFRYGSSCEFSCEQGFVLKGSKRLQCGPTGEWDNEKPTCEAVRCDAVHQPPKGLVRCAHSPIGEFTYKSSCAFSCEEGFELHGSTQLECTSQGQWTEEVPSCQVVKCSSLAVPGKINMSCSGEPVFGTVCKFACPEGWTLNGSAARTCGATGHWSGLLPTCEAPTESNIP
In words: HL60 cell adhesion assay on recombinant soluble E-selectin-IgG1 fusion protein. The assay is classed as cell-based. The settings on record: HL60 cell adhesion to E-selectin-IgG1.

Assay [1] concerns the target T2, P-selectin (Homo sapiens, UniProt P16109).
T2 construct: fused on or other part: constant region (hinge-Fc) of human IgG1 at the C-terminus, used as a capture handle
T2 sequence (P16109 42-321 limits assumed): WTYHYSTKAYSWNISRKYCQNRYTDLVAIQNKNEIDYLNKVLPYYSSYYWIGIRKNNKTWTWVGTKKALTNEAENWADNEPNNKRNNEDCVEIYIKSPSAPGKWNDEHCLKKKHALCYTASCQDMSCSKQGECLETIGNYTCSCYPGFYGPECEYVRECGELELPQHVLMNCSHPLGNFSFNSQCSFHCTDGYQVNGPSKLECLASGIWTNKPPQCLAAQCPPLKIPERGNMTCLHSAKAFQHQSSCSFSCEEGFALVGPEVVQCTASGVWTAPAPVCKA
In words: HL60 cell adhesion assay on recombinant soluble P-selectin-IgG1 fusion protein. The assay is classed as cell-based. The settings on record: HL60 cell adhesion to P-selectin-IgG1. The source says:
5. […] In the course of this, the cells have the opportunity to adhere to the coated plastic.

The target of assay [2] is T3, P-selectin (Homo sapiens, UniProt P16109).
T3 sequence (P16109 42-830): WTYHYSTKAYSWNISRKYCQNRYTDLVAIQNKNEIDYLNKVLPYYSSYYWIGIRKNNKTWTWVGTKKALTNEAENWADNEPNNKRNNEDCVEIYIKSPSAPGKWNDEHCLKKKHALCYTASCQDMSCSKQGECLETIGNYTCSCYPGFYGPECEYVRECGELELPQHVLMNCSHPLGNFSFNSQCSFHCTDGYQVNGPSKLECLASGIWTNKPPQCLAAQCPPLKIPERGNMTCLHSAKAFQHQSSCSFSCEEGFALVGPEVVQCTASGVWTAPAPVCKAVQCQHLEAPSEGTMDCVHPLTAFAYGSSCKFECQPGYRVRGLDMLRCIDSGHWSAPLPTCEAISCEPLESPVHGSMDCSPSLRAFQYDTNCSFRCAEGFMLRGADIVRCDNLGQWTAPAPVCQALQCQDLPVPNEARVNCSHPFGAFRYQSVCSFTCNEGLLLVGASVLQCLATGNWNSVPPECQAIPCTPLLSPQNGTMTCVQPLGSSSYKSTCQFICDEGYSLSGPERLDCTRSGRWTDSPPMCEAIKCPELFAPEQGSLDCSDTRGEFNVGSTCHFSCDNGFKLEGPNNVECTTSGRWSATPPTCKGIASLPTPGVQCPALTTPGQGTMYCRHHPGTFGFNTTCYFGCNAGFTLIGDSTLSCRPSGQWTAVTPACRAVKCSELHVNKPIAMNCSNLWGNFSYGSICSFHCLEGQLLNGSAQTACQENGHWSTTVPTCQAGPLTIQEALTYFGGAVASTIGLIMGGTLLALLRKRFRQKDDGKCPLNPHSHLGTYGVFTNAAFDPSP
The settings on record: read-out: IC50 for binding to P-selectin; cited from earlier work.

For assay [3], the system named is P-selectin-dependent lung damage. The settings on record: animal experiments; cited from earlier work.
Assay [4] concerns myocardial reperfusion injuries. The settings on record: animal experiments; cited from earlier work.
The test system of assay [5] is selectins. The settings on record: prior-art mimetics, Wong et al.; cited from earlier work.
For the next assay, the system named is selectin. The settings on record: cited from earlier work.
Assay [6] concerns selectins. The settings on record: prior-art glycopeptide analogs; cited from earlier work.

The source of these data is US6413936B1, “Glycomimetics as selectin antagonists and pharmaceuticals having antiinflammatory activity” (Glycorex AB, priority 1995, dated 2002).

Like-named read-outs stand apart in the source and are kept apart here. Numbered stars: 1 amine (or outer) side, 2 acyl side, 3 side chain; on linkers, the order of the positions; unused ones are H or OH. Square brackets hold non-standard residues; d marks the D form. Peptide text beside a SMILES is read from it. ξ: configuration not given here. X1 = CC1O[C@@H](CCCc2ccc(CC(N[*:1])C(=O)[*:2])cc2)C(O)C(O)[C@@H]1O; ξR = N=C(N)NCCCC(N)C(=O)O; ξS = NC(CO)C(=O)O

The IC50 is the concentration at which inhibition is half-maximal.

From the text for E-selectin: In these assays, the ligands may be supplied in their natural form as surface structures on promyelocytic HL60 cells. Since HL60 cells contain ligands and adhesion molecules of very different specificity, the desired specificity of the assay must therefore be provided by the binding component. Preferably, the binding components used are recombinant, soluble, fusion proteins formed from the extracytoplasmatic domains of E- or P-selectin, respectively, and the constant region of human immunoglobulin of the IgG1 subclass. […] An example of a suitable negative control is a fusion protein formed between the extracytoplasmic domain of CD4 and the IgG constant region.
These fusion proteins are then used in a cell adhesion assay in which COS cells transfected with the recombinant fusion proteins are first bound to the surface of a microtiter plate. The compound to be tested is added to the wells of the microtiter platein varying concentrations, followed by HL60 cells. After a defined period of time, the wells of the microtiter plate are washed and the HL60 cells adhering to the plate are counted. In a preferred embodiment, the HL60 cells are prelabeled with a fluorescent dye to facilitate cell counting. The number of cells adhering to the plate allows quantification of the inhibitory properties of the compound under test. […]

With `C[C@@H]1O[C@@H](CCCc2ccc(CC(N)C(=O)O)cc2)[C@@H](O)[C@H](O)[C@@H]1O` (some centres unmarked) [Compound 20], the IC50 on E-selectin and on P-selectin [1] was 2 mM throughout.

With `CC1O[C@@H](CCCc2ccc(CC(N)C(=O)NC(CCCNC(=N)N)C(=O)NCC(=O)N[C@@H](CC(=O)O)C(=O)NC(CO)C(=O)O)cc2)C(O)C(O)[C@@H]1O` (stereo partly drawn) [Compound 36, Ser-Asp-Gly-Arg-[C-FucPhe]] (H-[X1][ξR]GD[ξS]-OH), the IC50 at P-selectin [1] lay in the range of 3 to 5 mM. For the compound `C[C@@H]1O[C@@H](CC(=O)CO[C@H]2CC[C@@]3(C)C(CC[C@]4(C)[C@H]3C(=O)C=C3[C@@H]5C[C@@](C)(C(=O)O)CC[C@]5(C)CC[C@]34C)C2(C)C)[C@@H](O)[C@H](O)[C@@H]1O` (some centres unmarked) [(4a)], the IC50 on P-selectin [2] is 0.75 mM. With sialyl-Lewis-X [SLeX], in assay [3], the “protection against P-selectin-dependent lung damage” value is “used successfully”. In assay [4], the “protection against myocardial reperfusion injuries” value is recorded as “used successfully”. Take `C[C@@H]1OC(CCCCC2O[C@H](CO)[C@H](O)[C@H](OCC(=O)O)[C@H]2O)[C@@H](O)C(O)[C@@H]1O` (some centres unmarked) [(3)]: the IC50 with selectins [5] was 10 to 20 mM.

`COC1OC(C)C(O)(CC(=O)CCCOC2(C(=O)O)CC(O)C(NC(C)=O)C([C@H](O)[C@H](O)CO)O2)C(O)C1O` (some centres unmarked): the “affinity for selectin binding” value with selectin is reported as “only low affinity”. In the case of `CC1O[C@@H](C/C=C/c2ccc(C(=O)O)cc2)C(O)[C@@H](O)[C@@H]1O` (some centres unmarked) [Compound 23], the IC50 on E-selectin and on P-selectin [1] was 2 mM each time. For `C[C@@H]1OC(CC(=O)C2CCC[C@H]2C(=O)N[C@@H](Cc2ccccc2)C(=O)O)[C@@H](O)[C@H](O)[C@@H]1O` (some centres unmarked) [(2)], the IC50 in the assay on selectins [6] was roughly 1 mM.
